Source: PMC5062570 (Nature Communications, 2016)
pIC50: −log10 of the molar value.

How the values were obtained:
[1] = system: retina; details: mouse, in vivo; cited from earlier work
[2] = Microsomal stability; type: in vitro ADME
[3] = molecular target: T1, CatD (Homo sapiens, UniProt P07339); assay: PF-7802 labelling of HEK293T cells overexpressing CatD; type: cell-based; set-up: Myc-DDK (FLAG) (C); host or cells: HEK293T; details: 1 μM PF-7802, in-gel fluorescence
Procedure: (§1) Myc-DDK-tagged BACE1 and CatD were purchased as complementary DNA clones in the pCMV6-Entry vector (OriGene, catalogue nos RC209115 and RC200719). Site-directed mutagenesis was performed using the QuikChange II kit (Agilent) according to the manufacturer's protocols. For CatD M307A, forward primer 5′-[…]-3′ and its reverse complement primer were used. For CatD M309A, the forward primer was 5′-[…]-3′. Mutagenesis was confirmed by sequencing using primers provided by OriGene with the cDNA.
(§2) HEK-293T cells were plated at a density of 1 × 10^6 cells per well, allowed to adhere overnight and then transfected with Lipofectamine 3000 (Life Technologies) according to the manufacturer's protocol. […] Immunoblots were scanned using a LiCor Odyssey.
Target sequence in this assay (P07339 65-412): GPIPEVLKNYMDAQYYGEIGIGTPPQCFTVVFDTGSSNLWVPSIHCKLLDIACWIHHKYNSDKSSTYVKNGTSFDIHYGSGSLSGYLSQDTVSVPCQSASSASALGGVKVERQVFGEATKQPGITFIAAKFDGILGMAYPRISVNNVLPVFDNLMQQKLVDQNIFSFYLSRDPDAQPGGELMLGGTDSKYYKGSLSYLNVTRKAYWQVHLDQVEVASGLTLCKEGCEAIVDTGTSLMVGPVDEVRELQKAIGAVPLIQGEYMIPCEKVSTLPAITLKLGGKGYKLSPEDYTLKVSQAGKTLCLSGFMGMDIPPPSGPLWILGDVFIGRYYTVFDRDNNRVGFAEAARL

[4] = molecular target: T2, BACE1 (Homo sapiens, UniProt P56817); assay: BACE1 purified enzyme fluorescence polarization assay; type: biochemical; set-up: His (C); made in house; host or cells: CHO-K1; details: purified human enzyme, fluorescence polarization, peptide substrate
Procedure: (§3) Purified enzyme inhibition of BACE1, BACE2, CatD and CatE was determined using fluorescence polarization (FP) assays. Briefly, purified enzymes were treated with test compounds (1% DMSO, 37 °C) in the presence of synthetic peptide substrates (150 nM) in 30 μl total volume of NaOAc buffer (100 mM, pH 4.5, 0.0001% Tween-20) in a 384-well plate. After incubation, reactions were stopped and substrate captured by the addition of 1.5 μM streptavidin, and FP measured with an EnVision plate reader (PerkinElmer, excitation 485 nm, emission 530 nm). […] BACE2 activity was assessed with 0.5 nM recombinant BACE2 (R&D Systems 4097-AS) and the same synthetic substrate used for BACE1, with a 1 h incubation time. […] CatE activity was assessed with 1.0 nM recombinant CatE (Creative BioMart CTSE-255H) and the same synthetic substrate used for CatD, with a 1.5 h incubation time.
Target sequence in this assay (P56817 46-457): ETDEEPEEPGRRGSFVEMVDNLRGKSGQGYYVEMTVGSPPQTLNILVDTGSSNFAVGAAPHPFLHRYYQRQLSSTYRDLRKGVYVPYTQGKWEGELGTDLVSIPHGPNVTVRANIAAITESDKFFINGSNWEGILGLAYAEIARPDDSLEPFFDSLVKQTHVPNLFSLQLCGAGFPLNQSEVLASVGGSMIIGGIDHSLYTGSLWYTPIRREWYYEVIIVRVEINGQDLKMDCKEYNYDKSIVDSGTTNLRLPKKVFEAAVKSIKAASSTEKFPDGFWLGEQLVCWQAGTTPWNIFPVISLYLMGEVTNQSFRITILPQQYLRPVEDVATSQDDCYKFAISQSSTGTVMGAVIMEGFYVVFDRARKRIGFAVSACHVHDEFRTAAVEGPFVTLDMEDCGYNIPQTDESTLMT

[5] = molecular target: T3, BACE2 (Homo sapiens, UniProt Q9Y5Z0); assay: BACE2 purified enzyme fluorescence polarization assay; type: biochemical; details: purified human enzyme, fluorescence polarization
T3 construct: purchased R&D Systems 4097-AS
T3 sequence (Q9Y5Z0 63-518): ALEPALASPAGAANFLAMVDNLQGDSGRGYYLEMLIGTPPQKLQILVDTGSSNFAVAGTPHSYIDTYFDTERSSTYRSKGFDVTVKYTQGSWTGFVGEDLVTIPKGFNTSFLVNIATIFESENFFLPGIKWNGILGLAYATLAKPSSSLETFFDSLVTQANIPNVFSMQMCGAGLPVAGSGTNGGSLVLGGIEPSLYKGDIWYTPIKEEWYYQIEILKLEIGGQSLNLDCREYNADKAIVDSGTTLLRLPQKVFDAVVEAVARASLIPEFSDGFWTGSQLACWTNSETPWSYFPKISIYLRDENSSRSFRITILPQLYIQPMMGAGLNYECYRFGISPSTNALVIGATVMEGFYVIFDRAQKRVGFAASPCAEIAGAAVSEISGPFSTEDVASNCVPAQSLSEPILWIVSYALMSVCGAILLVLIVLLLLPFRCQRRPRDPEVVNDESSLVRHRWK
Procedure: as §3

[6] = molecular target: T2, BACE1; assay: PF-7802 labelling of HEK293T cells overexpressing BACE1; type: cell-based; set-up: endogenous in cells; host or cells: H4 human neuroglioma cells overexpressing human APP695; details: 1 μM PF-7802, in-gel fluorescence
Procedure: as §1, §2
Target sequence in this assay (P56817 46-501): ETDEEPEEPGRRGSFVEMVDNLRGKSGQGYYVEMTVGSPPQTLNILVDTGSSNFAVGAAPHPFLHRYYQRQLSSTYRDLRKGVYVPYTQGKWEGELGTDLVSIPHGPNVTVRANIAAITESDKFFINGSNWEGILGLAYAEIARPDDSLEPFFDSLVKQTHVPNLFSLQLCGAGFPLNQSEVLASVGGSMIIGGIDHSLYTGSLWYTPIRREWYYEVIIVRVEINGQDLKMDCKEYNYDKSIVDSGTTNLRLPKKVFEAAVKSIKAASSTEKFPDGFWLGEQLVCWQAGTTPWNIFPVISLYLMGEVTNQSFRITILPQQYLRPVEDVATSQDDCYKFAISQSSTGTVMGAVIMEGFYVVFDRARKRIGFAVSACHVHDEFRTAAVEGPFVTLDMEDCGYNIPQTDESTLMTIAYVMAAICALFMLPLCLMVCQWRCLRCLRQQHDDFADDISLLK

[7] = molecular target: T2, BACE1; assay: BACE1 biochemical cellular assay (sAPPβ ELISA in H4 cells overexpressing APP695); type: cell-based; set-up: endogenous in cells; host or cells: H4 human neuroglioma cells overexpressing human APP695; details: sAPPβ ELISA, H4 neuroglioma cells with human wild-type APP
Procedure: Cellular inhibition of BACE1 was determined by measuring sAPPβ, the primary cleavage product of BACE-1, in H4 human neuroglioma cells overexpressing the wild-type human APP695. […] The colorimetric reaction was read by an EnVision plate reader (PerkinElmer).
Target sequence in this assay (P56817 46-501): as above

[8] = molecular target: T1, CatD; assay: CatD purified enzyme fluorescence polarization assay; type: biochemical; set-up: final maturation into a non-covalently associated heavy chain and light chain; purchased Sigma C8696; host or cells: human liver; details: purified human enzyme, fluorescence polarization, substrate-based
Procedure: as §3
Target sequence in this assay (P07339 65-162 limits assumed): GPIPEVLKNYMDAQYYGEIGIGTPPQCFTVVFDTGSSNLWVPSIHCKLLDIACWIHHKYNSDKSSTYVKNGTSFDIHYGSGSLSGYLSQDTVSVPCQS
Target sequence in this assay (P07339 169-412 limits assumed): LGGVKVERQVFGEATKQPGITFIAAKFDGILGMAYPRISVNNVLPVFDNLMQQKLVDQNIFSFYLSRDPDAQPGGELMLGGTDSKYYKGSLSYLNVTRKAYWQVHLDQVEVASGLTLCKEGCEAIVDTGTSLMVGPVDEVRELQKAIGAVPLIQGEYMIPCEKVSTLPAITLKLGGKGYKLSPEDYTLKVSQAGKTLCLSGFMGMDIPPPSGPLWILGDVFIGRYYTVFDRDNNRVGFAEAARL

Q: For `C[C@@H](NC(=O)c1cc(C(=O)N[C@@H](Cc2ccccc2)[C@H](O)CNC2CC2)cc(N(C)S(C)(=O)=O)c1)c1ccccc1` [BACE1 inhibitor IV], which “Ocular pathology in wild-type mice” value [1] is on record?
A: The value was “could also be induced in vivo in wild-type mice”.

Q: What does the source list for `C#CCOc1ccc(C(=O)c2ccc(COC[C@H]3C[C@H]4CSC(N)=N[C@@]4(c4ccc(F)cc4F)CO3)cc2)cc1` [PF-7802]?
A: Microsomal stability [2]: poor microsomal stability; PF-7802 labelling in HEK293T cells overexpressing CatD [3]: robust labelling of CatD was observed; pIC50 [4]: 7.36; pIC50 [5]: 6.92; PF-7802 labelling in HEK293T cells overexpressing BACE1 [6]: indistinguishable from a mock transfected control; pIC50 [7]: 6.49; pIC50 [8]: 5.92
